Marks after values point to notes of the source that are not given here.
Key:
[1] = test system: β- and γ-globin gene promoters; test: Double-luciferase reporter assay of γ-globin expression in GM979 cells; format: cell-based, murine
Description: DMB was compared to arginine butyrate (AB) for its ability to induce y-globin expression in a double-luciferase reporter assay in murine erythroleukemia (GM979) cells transfected with the pLCR linked to the β- and γ-globin gene promoters linked to a different luciferase gene.

F-reticulocytes = test: F-reticulocyte production in anemic baboons; format: in vivo
Procedure: Expression of γ-globin and erythroid cell production was evaluated in a primate model in which baboons are phlebotomized on a daily basis to simulate the chronic RBC destruction associated with hemoglobinopathies. In this model, baboons, aged 2 to 3 years, had 2.5 to 7 mL/kg of blood withdrawn daily, and the volume replaced with an identical volume of normal saline. Hemoglobin levels were lowered relative to control levels, but were maintained between 6.5 to 7.5 g/dL, the level necessary for the modulation of globin genes in this animal species. The animals were supplemented with iron dextran and folic acid. The phlebotomy regimen effectively exchanged the animals' total blood volume every 10 to 20 days.
Globin chain protein synthesis was measured in DMB treated animals using ^3H-leucine-labeled reticulocytes before and 2 and 4 days after treatment. Complete blood counts and reticulocyte counts were monitored 3 times per week and plasma concentrations of the test article was determined. DMB was administered intravenously (IV, daily) or orally via nasogastric gavage under light anesthesia (on 3 alternating days per week for up to 6 weeks), on a dose-escalation schedule with starting doses of 500 to 800 mg/kg. If γ globin induction was observed, lower doses (40-200 mg/kg) were tested. Recombinant human erythropoietin (rhu-EPO) was also administered in separate treatment courses to 2 baboons at doses of 300 U/kg three times per week subcutaneously as a positive control for the erythropoietic effects of DMB. Treatments were performed in individual baboons.
In the anemic baboon model, increases in F-reticulocytes were usually observed within 2-3 days of treatment initiation and diminished within 3 to 5 days of treatment cessation.

CYP1A2 = biological target: T1, CYP1A2 (Homo sapiens, UniProt P05177); test: Cytochrome P450 inhibition in human hepatic microsomes; format: in vitro ADME
T1 construct: from tissue; host or cells: human hepatic microsomes
T1 sequence (P05177 whole entry): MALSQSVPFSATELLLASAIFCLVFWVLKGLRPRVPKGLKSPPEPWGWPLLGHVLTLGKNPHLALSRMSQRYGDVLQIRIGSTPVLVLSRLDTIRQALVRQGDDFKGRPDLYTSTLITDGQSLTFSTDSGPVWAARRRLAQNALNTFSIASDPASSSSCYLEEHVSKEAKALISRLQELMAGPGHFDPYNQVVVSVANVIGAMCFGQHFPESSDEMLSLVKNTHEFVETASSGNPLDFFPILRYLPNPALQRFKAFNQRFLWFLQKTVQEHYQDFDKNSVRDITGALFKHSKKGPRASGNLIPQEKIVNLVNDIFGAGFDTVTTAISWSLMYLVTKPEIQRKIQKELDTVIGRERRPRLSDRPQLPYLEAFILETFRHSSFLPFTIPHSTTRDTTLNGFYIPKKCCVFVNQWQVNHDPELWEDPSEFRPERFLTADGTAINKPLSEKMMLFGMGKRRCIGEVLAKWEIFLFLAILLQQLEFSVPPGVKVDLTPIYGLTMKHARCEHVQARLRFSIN
Procedure: (§1) The inhibitory potential of DMB on the human cytochrome P450 activities involved in the metabolism of phenacetin O-deethylase (CYP1A2), bupropion hydroxylase (CYP2B6), amodiaquine N-deethylase (CYP2C8), diclofenac 4′-hydroxylase (CYP2C9), S-mephenyloin 4′-hydroxylase (CYP2C19), bufuralol 1′-hydroxylase (CYP2D6), testosterone 6β-hydroxylase (CYP3A), and midazolam 1′-hydroxylase (CYP3A) was assessed in vitro using human hepatic microsomes. Microsomes were incubated with isoenzyme-selective substrates at concentrations approximating the Km value in the absence and presence of DMB (at concentrations ranging from 0.1 to […]). The extent of inhibition was assessed by comparing activities from control and DMB-treated microsomes. […] Percent activity remaining was high for all cytochrome P450 assays with 80% activity remaining compared with control activities.

CYP2D6 = biological target: T2, CYP2D6 (Homo sapiens, UniProt P10635); test: as above; format: in vitro ADME
T2 construct: from tissue; host or cells: human hepatic microsomes
T2 sequence (P10635 whole entry): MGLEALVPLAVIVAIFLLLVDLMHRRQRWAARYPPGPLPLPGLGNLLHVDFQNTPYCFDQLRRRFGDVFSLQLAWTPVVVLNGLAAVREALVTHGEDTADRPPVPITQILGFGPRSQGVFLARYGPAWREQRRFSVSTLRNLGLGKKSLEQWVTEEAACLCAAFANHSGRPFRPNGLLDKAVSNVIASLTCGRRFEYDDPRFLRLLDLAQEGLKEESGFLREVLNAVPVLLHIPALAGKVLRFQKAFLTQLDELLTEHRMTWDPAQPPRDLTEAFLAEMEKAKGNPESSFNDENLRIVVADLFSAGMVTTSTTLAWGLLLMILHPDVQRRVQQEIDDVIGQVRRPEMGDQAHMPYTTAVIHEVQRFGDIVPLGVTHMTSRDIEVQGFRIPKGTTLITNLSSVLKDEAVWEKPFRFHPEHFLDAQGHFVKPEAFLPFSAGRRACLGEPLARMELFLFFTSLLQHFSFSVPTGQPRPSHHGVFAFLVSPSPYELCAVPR
Procedure: as §1

CYP3A = test: as above; format: in vitro ADME
Procedure: as §1

CYP2C9 = biological target: T3, CYP2C9 (Homo sapiens, UniProt P11712); test: as above; format: in vitro ADME
T3 construct: from tissue; host or cells: human hepatic microsomes
T3 sequence (P11712 whole entry): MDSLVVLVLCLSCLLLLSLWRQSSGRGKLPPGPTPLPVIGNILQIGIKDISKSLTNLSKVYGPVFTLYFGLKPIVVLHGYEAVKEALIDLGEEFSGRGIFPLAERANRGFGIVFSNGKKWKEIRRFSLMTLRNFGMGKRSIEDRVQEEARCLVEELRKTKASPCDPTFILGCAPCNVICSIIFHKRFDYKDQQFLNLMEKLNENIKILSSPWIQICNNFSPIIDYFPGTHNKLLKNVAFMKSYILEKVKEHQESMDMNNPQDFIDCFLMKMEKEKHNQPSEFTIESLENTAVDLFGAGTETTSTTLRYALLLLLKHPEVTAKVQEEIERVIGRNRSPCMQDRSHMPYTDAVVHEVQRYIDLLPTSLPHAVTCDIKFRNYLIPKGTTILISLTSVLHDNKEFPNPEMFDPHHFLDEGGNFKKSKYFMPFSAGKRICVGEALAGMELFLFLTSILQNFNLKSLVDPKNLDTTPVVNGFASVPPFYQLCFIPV
Procedure: as §1

CYP2C19 = biological target: T4, CYP2C19 (Homo sapiens, UniProt P33261); test: as above; format: in vitro ADME
T4 construct: from tissue; host or cells: human hepatic microsomes
T4 sequence (P33261 whole entry): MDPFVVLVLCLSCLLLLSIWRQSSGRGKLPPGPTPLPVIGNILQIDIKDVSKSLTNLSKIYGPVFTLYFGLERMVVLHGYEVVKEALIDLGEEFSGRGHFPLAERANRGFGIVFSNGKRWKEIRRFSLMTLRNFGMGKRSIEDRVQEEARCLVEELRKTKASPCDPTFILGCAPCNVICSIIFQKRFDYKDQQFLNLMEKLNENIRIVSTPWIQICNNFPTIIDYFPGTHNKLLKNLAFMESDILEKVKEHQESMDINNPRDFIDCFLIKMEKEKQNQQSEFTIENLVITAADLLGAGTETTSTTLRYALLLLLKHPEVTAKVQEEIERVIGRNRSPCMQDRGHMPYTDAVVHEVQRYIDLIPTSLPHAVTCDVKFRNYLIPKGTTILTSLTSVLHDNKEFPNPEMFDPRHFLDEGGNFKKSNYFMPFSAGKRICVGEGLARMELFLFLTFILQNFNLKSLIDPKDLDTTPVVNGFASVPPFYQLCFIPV
Procedure: as §1

CYP2C8 = biological target: T5, CYP2C8 (Homo sapiens, UniProt P10632); test: as above; format: in vitro ADME
T5 construct: from tissue; host or cells: human hepatic microsomes
T5 sequence (P10632 whole entry): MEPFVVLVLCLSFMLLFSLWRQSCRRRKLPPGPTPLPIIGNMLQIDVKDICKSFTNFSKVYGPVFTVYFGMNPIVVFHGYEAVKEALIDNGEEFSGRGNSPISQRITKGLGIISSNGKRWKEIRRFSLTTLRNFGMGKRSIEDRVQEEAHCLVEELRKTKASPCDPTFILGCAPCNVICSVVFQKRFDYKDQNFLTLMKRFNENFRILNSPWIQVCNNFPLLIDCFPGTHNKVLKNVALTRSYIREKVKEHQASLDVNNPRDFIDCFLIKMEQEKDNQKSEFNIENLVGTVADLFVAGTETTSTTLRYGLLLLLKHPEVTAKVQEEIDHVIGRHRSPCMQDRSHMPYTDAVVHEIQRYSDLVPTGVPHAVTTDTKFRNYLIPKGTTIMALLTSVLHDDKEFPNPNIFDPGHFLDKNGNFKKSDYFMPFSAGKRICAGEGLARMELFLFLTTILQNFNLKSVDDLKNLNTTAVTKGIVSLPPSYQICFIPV
Procedure: as §1

CYP2B6 = biological target: T6, CYP2B6 (Homo sapiens, UniProt P20813); test: as above; format: in vitro ADME
T6 construct: from tissue; host or cells: human hepatic microsomes
T6 sequence (P20813 whole entry): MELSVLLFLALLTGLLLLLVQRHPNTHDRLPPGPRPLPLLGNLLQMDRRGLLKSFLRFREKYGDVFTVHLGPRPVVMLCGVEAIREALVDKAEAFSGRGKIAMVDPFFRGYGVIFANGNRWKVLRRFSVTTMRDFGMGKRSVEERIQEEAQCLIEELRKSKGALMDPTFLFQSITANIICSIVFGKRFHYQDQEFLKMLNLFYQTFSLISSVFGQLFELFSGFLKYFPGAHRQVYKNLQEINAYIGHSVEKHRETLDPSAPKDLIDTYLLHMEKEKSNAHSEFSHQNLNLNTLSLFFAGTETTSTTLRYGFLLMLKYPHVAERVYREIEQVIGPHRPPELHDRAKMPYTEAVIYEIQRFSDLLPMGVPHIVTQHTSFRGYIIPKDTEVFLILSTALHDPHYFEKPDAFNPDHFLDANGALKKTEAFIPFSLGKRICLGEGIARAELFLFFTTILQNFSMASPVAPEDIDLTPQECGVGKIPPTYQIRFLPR
Procedure: as §1

[2] = Dose range-finding embryo/fetal developmental toxicity in rats; format: in vivo
Procedure: DMB was administered orally by gavage to 4 groups of 8 bred female Sprague Dawley rats once daily from gestation Days 6 through 17, at dosage levels of 50, 150, 500 and 1000 mg/kg/day. […] On gestation Day 20, a laparohysterectomy was performed on each surviving female.

absolute reticulocytes = test: Phase 1 repeat-dose clinical study, absolute reticulocytes; format: in vivo, human
Procedure: Mean absolute reticulocytes (10^9 cells/L) in the placebo group at baseline and Day 27 were 51+/−12 and 62+/−20, respectively, which was not statistically significant (p=0.19). Mean absolute reticulocytes increased on average from 50% to 60% above the mean baseline values in the subjects who received study medication. For example, at baseline in Cohort 1 (5 mg/kg, fasted) mean absolute reticulocytes were 50+/−12 and mean peak reticulocytes were 81+/−24, (p=0.02); in Cohort 4 (10 mg/kg) mean baseline reticulocytes were 58+/−8 and mean peak reticulocytes were 84+/−14, (p=0.003), and in Cohort 5 (15 mg/kg; fed), the mean baseline was 46+/−11 and mean peak level was 72+/−11, a 50% increase (p=0.001).

γ-globin mRNA = γ-globin mRNA in anemic baboons given HU and DMB; format: in vivo; conditions: HU 3 days/week
[3] = Half-life of DMB (summary statement); conditions: in vivo
hERG channels = biological target: T7, hERG channels (Homo sapiens, UniProt Q12809); test: hERG channel, voltage-clamped human embryonic kidney cells; format: cell-based; conditions: concentrations up to 1 mM (138 μg/mL)
T7 construct: expressed in transfected cells
T7 sequence (Q12809 whole entry): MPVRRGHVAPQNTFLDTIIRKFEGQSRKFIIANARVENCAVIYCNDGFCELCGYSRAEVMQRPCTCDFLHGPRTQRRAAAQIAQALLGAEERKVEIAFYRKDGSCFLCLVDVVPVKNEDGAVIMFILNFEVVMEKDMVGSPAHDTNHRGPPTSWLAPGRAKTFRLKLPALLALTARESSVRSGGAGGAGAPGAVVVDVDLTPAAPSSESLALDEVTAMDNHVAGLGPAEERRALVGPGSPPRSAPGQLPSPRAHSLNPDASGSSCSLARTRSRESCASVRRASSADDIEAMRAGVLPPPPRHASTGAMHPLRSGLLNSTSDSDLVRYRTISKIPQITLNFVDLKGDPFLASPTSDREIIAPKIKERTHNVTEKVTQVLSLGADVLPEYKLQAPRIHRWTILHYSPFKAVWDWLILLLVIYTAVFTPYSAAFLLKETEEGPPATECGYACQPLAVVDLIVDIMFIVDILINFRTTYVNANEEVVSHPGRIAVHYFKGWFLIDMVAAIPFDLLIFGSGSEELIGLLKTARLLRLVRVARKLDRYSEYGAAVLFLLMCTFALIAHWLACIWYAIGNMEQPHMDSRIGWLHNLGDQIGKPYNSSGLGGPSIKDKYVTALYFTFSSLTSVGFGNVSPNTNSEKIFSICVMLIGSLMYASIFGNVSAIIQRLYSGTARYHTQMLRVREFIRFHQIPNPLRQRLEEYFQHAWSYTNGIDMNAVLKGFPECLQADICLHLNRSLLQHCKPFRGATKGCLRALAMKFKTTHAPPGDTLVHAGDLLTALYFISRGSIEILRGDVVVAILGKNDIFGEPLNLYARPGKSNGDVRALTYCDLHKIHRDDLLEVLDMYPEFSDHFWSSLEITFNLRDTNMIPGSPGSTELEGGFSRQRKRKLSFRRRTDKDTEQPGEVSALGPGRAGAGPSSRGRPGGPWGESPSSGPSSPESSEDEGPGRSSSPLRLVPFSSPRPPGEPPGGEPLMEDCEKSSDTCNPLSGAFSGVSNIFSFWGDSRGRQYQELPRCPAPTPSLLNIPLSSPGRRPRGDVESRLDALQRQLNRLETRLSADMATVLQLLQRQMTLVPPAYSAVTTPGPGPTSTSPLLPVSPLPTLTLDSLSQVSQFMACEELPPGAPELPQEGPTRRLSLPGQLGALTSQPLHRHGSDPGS
Procedure: Cardiovascular safety pharmacology assessments included an in vitro screen to evaluate the effects of DMB on cardiac ion channel and an in vivo evaluation of cardiovascular and hemodynamic effects in Beagle dogs. Electrophysiologic effects were evaluated in laboratory studies utilizing voltage-clamped human embryonic kidney cells transformed by adenovirus cDNA and transfected with cDNA in order to stably express the human ether a-go-go related gene (hERG). The effect on cellular hERG channels was evaluated at DMB concentrations up to 1 mM (138 μg/mL).

[4] = compared with control activities

SMILES: CCC(C)(C)C(=O)[O-].[Na+] [DMB, Sodium 2,2-dimethylbutyrate]
- Mean Fold Increase ([1]; 0.5 mM, compared to untreated controls, p ≦ 0.01): 2.2*
- γ/(γ + β) globin Expression, Range ([1]; Active Concentration 0.5 mM): 0.033-0.052
- F-reticulocytes Mean Fold Increase (F-reticulocytes; 150 mg/kg/day, IV, 5 days): 5
- F-reticulocytes Mean Fold Increase (F-reticulocytes; 200 mg/kg/day, IV, 5 days/wk): 15
- F-reticulocytes Mean Fold Increase (F-reticulocytes; 500 mg/kg/2nd day, Oral, 5 days/wk, 2 wks): 3.8
- F-reticulocytes Mean Fold Increase (F-reticulocytes; 500-700 mg/kg/2nd day, Oral): 3.8
- inhibition of phenacetin O-deethylase (CYP1A2) (CYP1A2; DMB up to 300 μM): no significant inhibition
- Percent activity remaining, phenacetin O-deethylase (CYP1A2) (CYP1A2; [4]): 80%
- inhibition of bufuralol 1′-hydroxylase (CYP2D6) (CYP2D6; DMB up to 300 μM): no significant inhibition
- Percent activity remaining, bufuralol 1′-hydroxylase (CYP2D6) (CYP2D6; [4]): 80%
- inhibition of midazolam 1′-hydroxylase (CYP3A) (CYP3A; DMB up to 300 μM): no significant inhibition
- inhibition of testosterone 6β-hydroxylase (CYP3A) (CYP3A; DMB up to 300 μM): no significant inhibition
- Percent activity remaining, midazolam 1′-hydroxylase (CYP3A) (CYP3A; [4]): 80%
- Percent activity remaining, testosterone 6β-hydroxylase (CYP3A) (CYP3A; [4]): 80%
- inhibition of diclofenac 4′-hydroxylase (CYP2C9) (CYP2C9; DMB up to 300 μM): no significant inhibition
- Percent activity remaining, diclofenac 4′-hydroxylase (CYP2C9) (CYP2C9; [4]): 80%
- inhibition of S-mephenyloin 4′-hydroxylase (CYP2C19) (CYP2C19; DMB up to 300 μM): no significant inhibition
- Percent activity remaining, S-mephenyloin 4′-hydroxylase (CYP2C19) (CYP2C19; [4]): 80%
- inhibition of amodiaquine N-deethylase (CYP2C8) (CYP2C8; DMB up to 300 μM): no significant inhibition
- Percent activity remaining, amodiaquine N-deethylase (CYP2C8) (CYP2C8; [4]): 80%
- inhibition of bupropion hydroxylase (CYP2B6) (CYP2B6; DMB up to 300 μM): no significant inhibition
- Percent activity remaining, bupropion hydroxylase (CYP2B6) (CYP2B6; [4]): 80%
- maternal or fetal effects ([2]; 50 mg/kg/day): No maternal or fetal effects
- postimplantation loss ([2]; 150 mg/kg/day): Increased postimplantation loss
- acceptability of dosage for a definitive embryo/fetal developmental toxicity study ([2]; rat, in vivo): considered unacceptable
- mean peak reticulocytes (absolute reticulocytes; Cohort 1 (5 mg/kg, fasted), baseline 50+/−12, p=0.02): 81+/−24 10^9 cells/L
- mean peak reticulocytes (absolute reticulocytes; Cohort 4 (10 mg/kg), baseline 58+/−8, p=0.003): 84+/−14 10^9 cells/L
- increase of reticulocytes, baseline to peak (absolute reticulocytes; Cohort 5 (15 mg/kg; fed)): 50%
- mean peak reticulocytes (absolute reticulocytes; Cohort 5 (15 mg/kg; fed), baseline 46+/−11, p=0.001): 72+/−11 10^9 cells/L
- γ-globin mRNA increase above baseline (γ-globin mRNA): 290%
- half-life [3]: 9 to 11 h
- activity on hERG channel function (hERG channels): essentially no activity

— US8618068B2, “Methods and low dose regimens for treating red blood cell disorders” (priority 2009, dated 2013)
